≈ marks a conversion by molar mass, not a printed value.
Tests used:
Human alphaherpesvirus 2 = experiment: Antiviral activity against HSV2 clinical isolate; assay type: functional
LoVo = experiment: Cytotoxicity against human LoVo cells; assay type: functional, cell-based

Row | SMILES | IC90 (Human alphaherpesvirus 2) | IC50 (LoVo)
1 | Cn1c2cnccc2c2ccc(Cl)cc21 [BAUERINE A] | 2 µg/mL (≈ 9.23 µM) | 3 µg/mL (≈ 13.8 µM)
2 | Cn1c2c(Cl)c(Cl)ccc2c2cc[nH]c(=O)c21 [BAUERINE C] | 2.5 µg/mL (≈ 9.36 µM) | 0.03 µg/mL (≈ 0.112 µM)
3 | Cn1c2cnccc2c2ccc(Cl)c(Cl)c21 [BAUERINE B] | 3 µg/mL (≈ 11.9 µM) | 5 µg/mL (≈ 19.9 µM)
